# Tests used:
# [1] = system: H9 cell line; test: leukemia cell growth inhibition, MTT; type: cell-based; details: Homo sapiens; for IC50: H9, 72 h; for inhibition at 16 µg/mL: H9, 16 μg/mL compound, 72 h, read-out: IR (cell proliferation inhibition rate)
# From the text: (§1) Leukemia cell lines: leukemia cell lines: K562/adr (drug-resistant, chronic myeloid leukemia, CML), NB4 (acute promyelocytic leukemia, AML), Kasumi-1 (acute myeloid leukemia M2 type, AML-M2), Jurkat (acute lymphoblastic leukemia, ALL), all of which are donated by Cancer Research Institute of Zhejiang University, China; and H9 (acute lymphoblastic leukemia, ALL), which is purchased from China Center for Type Culture Collection (CCTCC).
# (§2) Obtaining 6000 well-growing leukemia cells and inoculating them into wells of a 96-well cell culture plate. The culture medium is the 1640 cell culture medium containing 10% fetal bovine serum. After adding the 2-substituted oleanolic acid derivatives of different concentrations and mixing uniformly, placing the plate in a carbon dioxide cell incubator (5% CO2) at 37° C. and incubated for 72 hours. Then the relative number of viable cells is determined by MTT method. In this experiment, cell proliferation inhibition rate in control group (not treated with any compound) is set as 0%.
# [2] = system: Jurkat cell line; test: leukemia cell growth inhibition, MTT; type: cell-based; details: Homo sapiens, 72 h; for inhibition at 16 µg/mL: 16 μg/mL compound, read-out: IR (cell proliferation inhibition rate)
# From the text: as §1, §2
# [3] = system: K562/adr cell line; test: leukemia cell growth inhibition, MTT; type: cell-based; details: Homo sapiens, 72 h; for IC50: K562/Adr; for inhibition at 16 µg/mL: K562/adr, 16 μg/mL compound, read-out: IR (cell proliferation inhibition rate)
# From the text: as §1, §2
# [4] = system: Kasumi-1 cell line; test: leukemia cell growth inhibition, MTT; type: cell-based; details: Homo sapiens; for inhibition at 16 µg/mL: Kasumi-1, 16 μg/mL compound, 72 h, read-out: IR (cell proliferation inhibition rate); for IC50: Kasumi-1, 72 h
# From the text: as §1, §2
# [5] = system: NB4 cell line; test: leukemia cell growth inhibition, MTT; type: cell-based; details: Homo sapiens, NB-4; for inhibition at 16 µg/mL: NB4, 16 μg/mL compound, 72 h, read-out: IR (cell proliferation inhibition rate); for IC50: NB4, 72 h
# From the text: as §1, §2
# [6] = system: RPMI8226 cell line; test: multiple myeloma cell growth inhibition, MTT; type: cell-based; details: Homo sapiens, RPMI-8226; for inhibition at 16 µg/mL: RPMI8226, 16 μg/mL compound, 72 h, read-out: IR (cell proliferation inhibition rate); for IC50: RPMI8226, 72 h
# Procedure: Multiple myeloma cell lines: RPMI8226 (multiple myeloma), purchased from Fuxiang Bio-tech Co. Ltd., Shanghai, China.
# Obtaining 6000 well-growing cells as above and inoculating them into wells of a 96-well cell culture plate. The culture medium is the 1640 cell culture medium containing 10% fetal bovine serum. After adding the 2-substituted oleanolic acid derivatives of different concentrations and mixing uniformly, placing the plate in a carbon dioxide cell incubator (5% CO2) at 37° C. and incubated for 72 hours. Then the relative number of viable cells is determined by MTT method. In this experiment, cell proliferation inhibition rate in control group (not treated with any compound) is set as 0%.
# [7] = system: Hep G2 cell line; test: solid tumor cell growth inhibition, MTT; type: cell-based, human; details: Homo sapiens; for inhibition at 16 µg/mL: HepG2, 72 h, Hep G2, 16 μg/mL compound, 72 h, read-out: IR (cell proliferation inhibition rate); for IC50: HepG2, Hep G2, 72 h
# Procedure: (§3) Hep-2 (laryngeal carcinoma), A549 (human lung cancer), CaES-17 (esophageal cancer cell), PC-3 (prostate cancer), CNE (nasopharyngeal carcinoma cell), and SK-OV-3 (ovarian cancer cell), all of which are purchased from China Center For Type Culture Collection; RKO (human colon adenocarcinoma cell), MGC 803 (human gastric cancer cell), MG63 (osteosarcoma) and U87 MG (malignant glioma cell), all of which are purchased from Fuxiang Bio-tech Co. Ltd., Shanghai, China; PANC-1 (pancreatic cancer), Hep G2 (human liver cancer cell), Becap37 (human breast cancer cell), and Hela (human cervical cancer cell), all of which are donated by Cancer Research Institute of Zhejiang University, China.
# (§4) Obtaining 4000 well-growing human solid tumor cells and inoculating them into wells of a 96-well cell culture plate. The culture medium is DMEM High Glucose cell culture medium containing 10% fetal bovine serum. The plate is placed in a carbon dioxide cell incubator (5% CO2) at 37° C. for 24 hours. After adding the 2-substituted oleanolic acid derivatives of different concentrations and mixing uniformly, the plate is placed in a carbon dioxide cell incubator (5% CO2) at 37° C. and incubated for 72 hours. Then the relative number of the living cells is determined by MTT method. In this experiment, the cell proliferation inhibition rate in control group (not treated with any compound) is set as 0%.
# [8] = system: A549 cell line; test: solid tumor cell growth inhibition, MTT; type: cell-based; details: Homo sapiens; for IC50: A549, 72 h; for inhibition at 16 µg/mL: A549, 16 μg/mL compound, 72 h, read-out: IR (cell proliferation inhibition rate)
# Procedure: as §3, §4
# [9] = system: Becap37 cell line; test: solid tumor cell growth inhibition, MTT; type: cell-based; details: Homo sapiens; for inhibition at 16 µg/mL: Becap37, 16 μg/mL compound, 72 h, read-out: IR (cell proliferation inhibition rate); for IC50: Becap37, 72 h
# Procedure: as §3, §4
# [10] = system: CNE cell line; test: solid tumor cell growth inhibition, MTT; type: cell-based; details: Homo sapiens, 72 h; for inhibition at 16 µg/mL: 16 μg/mL compound, read-out: IR (cell proliferation inhibition rate)
# Procedure: as §3, §4
# [11] = system: CaES-17 cell line; test: solid tumor cell growth inhibition, MTT; type: cell-based; details: Homo sapiens, CaEs17; for inhibition at 16 µg/mL: CaES-17, 16 μg/mL compound, 72 h, read-out: IR (cell proliferation inhibition rate); for IC50: CaES-17, 72 h
# Procedure: as §3, §4
# [12] = system: Hela cell line; test: solid tumor cell growth inhibition, MTT; type: cell-based; details: Homo sapiens, 72 h; for IC50: HeLa; for inhibition at 16 µg/mL: Hela, 16 μg/mL compound, read-out: IR (cell proliferation inhibition rate)
# Procedure: as §3, §4
# [13] = system: Hep-2 cell line; test: solid tumor cell growth inhibition, MTT; type: cell-based; details: Homo sapiens; for IC50: HEp-2, 72 h; for inhibition at 16 µg/mL: Hep-2, 16 μg/mL compound, 72 h, read-out: IR (cell proliferation inhibition rate)
# Procedure: as §3, §4
# [14] = system: MG-63 cell line; test: solid tumor cell growth inhibition, MTT; type: cell-based; details: Homo sapiens; for IC50: MG-63, 72 h; for inhibition at 16 µg/mL: MG-63, 16 μg/mL compound, 72 h, read-out: IR (cell proliferation inhibition rate)
# Procedure: as §3, §4
# [15] = system: MGC 803 cell line; test: solid tumor cell growth inhibition, MTT; type: cell-based; details: Homo sapiens; for inhibition at 16 µg/mL: MGC 803, 16 μg/mL compound, 72 h, read-out: IR (cell proliferation inhibition rate); for IC50: MGC 803, 72 h
# Procedure: as §3, §4
# [16] = system: PANC-1 cell line; test: solid tumor cell growth inhibition, MTT; type: cell-based; details: Homo sapiens; for IC50: PANC-1, 72 h; for inhibition at 16 µg/mL: PANC-1, 16 μg/mL compound, 72 h, read-out: IR (cell proliferation inhibition rate)
# Procedure: as §3, §4
# [17] = system: PC-3 cell line; test: solid tumor cell growth inhibition, MTT; type: cell-based; details: Homo sapiens; for IC50: PC-3, 72 h; for inhibition at 16 µg/mL: PC-3, 16 μg/mL compound, 72 h, read-out: IR (cell proliferation inhibition rate)
# Procedure: as §3, §4
# [18] = system: RKO cell line; test: solid tumor cell growth inhibition, MTT; type: cell-based; details: Homo sapiens, 72 h; for inhibition at 16 µg/mL: 16 μg/mL compound, read-out: IR (cell proliferation inhibition rate)
# Procedure: as §3, §4
# [19] = system: SK-OV-3 cell line; test: solid tumor cell growth inhibition, MTT; type: cell-based; details: Homo sapiens; for IC50: SK-OV-3, 72 h; for inhibition at 16 µg/mL: SK-OV-3, 16 μg/mL compound, 72 h, read-out: IR (cell proliferation inhibition rate)
# Procedure: as §3, §4
# [20] = system: U87 MG cell line; test: solid tumor cell growth inhibition, MTT; type: cell-based; details: Homo sapiens, U-87 MG, 72 h; for inhibition at 16 µg/mL: 16 μg/mL compound, read-out: IR (cell proliferation inhibition rate)
# Procedure: as §3, §4
Structure (SMILES),IC50 [1] [µg/mL],inhibition at 16 µg/mL [1] [%],inhibition at 16 µg/mL [2] [%],IC50 [2] [µg/mL],IC50 [3] [µg/mL],inhibition at 16 µg/mL [3] [%],inhibition at 16 µg/mL [4] [%],IC50 [4] [µg/mL],inhibition at 16 µg/mL [5] [%],IC50 [5] [µg/mL],inhibition at 16 µg/mL [6] [%],IC50 [6] [µg/mL],inhibition at 16 µg/mL [7] [%],IC50 [7] [µg/mL],IC50 [8] [µg/mL],inhibition at 16 µg/mL [8] [%],inhibition at 16 µg/mL [9] [%],IC50 [9] [µg/mL],inhibition at 16 µg/mL [10] [%],IC50 [10] [µg/mL],also measured
CCN(CC)CCCNC(=O)C1C[C@]2(C)[C@H]3CC=C4[C@@H]5CC(C)(C)CC[C@]5(C(=O)OC)CC[C@@]4(C)[C@]3(C)CC[C@H]2C(C)(C)C1=O (some centres unmarked) [BS-OA-035],2.67,97.5,96.6,1.67,0.68,99.6,97,3.95,99.8,2.96,99.1,0.61,> 96,1.94,2.02,97.3,98.6,5.2,99,3.64,inhibition at 16 µg/mL [11]: 98%; IC50 [11]: 2.74 µg/mL; IC50 [12]: 3.11 µg/mL; inhibition at 16 µg/mL [12]: 98.1%; IC50 [13]: 5.34 µg/mL; inhibition at 16 µg/mL [13]: 98.5%; IC50 [14]: 1.62 µg/mL; inhibition at 16 µg/mL [14]: 100%; inhibition at 16 µg/mL [15]: 98.9%; IC50 [15]: 2.56 µg/mL; IC50 [16]: 4.89 µg/mL; inhibition at 16 µg/mL [16]: 99.8%; IC50 [17]: 5 µg/mL; inhibition at 16 µg/mL [17]: 98.5%; inhibition at 16 µg/mL [18]: 97.2%; IC50 [18]: 2.39 µg/mL; IC50 [19]: 3.72 µg/mL; inhibition at 16 µg/mL [19]: 98.6%; inhibition at 16 µg/mL [20]: 97.1%; IC50 [20]: 2.7 µg/mL
COC(=O)[C@]12CCC(C)(C)CC1C1=CCC3[C@@]4(C)CC(C(=O)NCCCN5CCOCC5)C(=O)C(C)(C)C4CC[C@@]3(C)[C@]1(C)CC2 (some centres unmarked) [BS-OA-037],8.73,95.8,80.4,11.5,1.57,97.6,63.7,13.5,97.6,4.59,99.1,2.43,95.7,8.68,10.4,82,8.4,> 16,52.6,15.5,inhibition at 16 µg/mL [11]: 82.3%; IC50 [11]: 11.6 µg/mL; IC50 [12]: 11 µg/mL; inhibition at 16 µg/mL [12]: 93.6%; IC50 [13]: > 16 µg/mL; inhibition at 16 µg/mL [13]: 25.6%; IC50 [14]: 12.5 µg/mL; inhibition at 16 µg/mL [14]: 64.6%; inhibition at 16 µg/mL [15]: 80.5%; IC50 [15]: 10.8 µg/mL; IC50 [16]: > 16 µg/mL; inhibition at 16 µg/mL [16]: 11.3%; IC50 [17]: 18.7 µg/mL; inhibition at 16 µg/mL [17]: 44.2%; inhibition at 16 µg/mL [18]: 62.6%; IC50 [18]: 14.4 µg/mL; IC50 [19]: 10.2 µg/mL; inhibition at 16 µg/mL [19]: 90.9%; inhibition at 16 µg/mL [20]: 92.6%; IC50 [20]: 11.1 µg/mL
